The supplement of paper PMC5908809

Tests used:
[1] = system: normal NK cells expanded with K562-aAPC; test: percent inhibition of viability; higher = more inhibition; conditions: 72 h, IL-2 2.5 ng/mL
Description: (§1)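 Drug sensitivity and resistance testing on K562-aAPC-expanded normal NK cells: 5 concentrations (10-fold steps over a 10,000-fold range), 72 h at 37 °C, viability by CellTiter-Glo normalised to DMSO and benzethonium chloride controls; DSS from the fitted curve.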

DERL-7 (IL-2 2.5 ng/mL) [2] = test: as above; conditions: 72 h
IMC-1 (IL-2 20 ng/mL) [3] = test: as above; conditions: 72 h
KAI3 (IL-2 2.5 ng/mL) [4] = test: as above; conditions: 72 h
KHYG-1 (IL-2 2.5 ng/mL) [5] = test: as above; conditions: 72 h
NK-92 (IL-2 2.5 ng/mL) [6] = test: as above; conditions: 72 h
NK-YS (IL-2 2.5 ng/mL) [7] = test: as above; conditions: 72 h
NKL (IL-2 2.5 ng/mL) [8] = test: as above; conditions: 72 h
SNK-6 (IL-2 2.5 ng/mL) [9] = test: as above; conditions: 72 h
YT (IL-2 2.5 ng/mL) [10] = test: as above; conditions: 72 h
[11] = system: normal primary NK cells, pool 1 (3 donors) (IL-2 2.5 ng/mL); test: as above; conditions: 72 h
[12] = system: normal primary NK cells, pool 1 (3 donors), resting (IL-2 0 ng/mL); test: as above; conditions: 72 h
[13] = system: normal primary NK cells, pool 2 (3 donors) (IL-2 2.5 ng/mL); test: as above; conditions: 72 h
[14] = system: normal primary NK cells, pool 3 (3 donors) (IL-2 2.5 ng/mL); test: as above; conditions: 72 h
[15] = system: normal NK cells expanded with K562-aAPC; test: drug sensitivity score (DSS) (DSS units); higher = more sensitive; extreme values may be limits of the assay; conditions: 72 h; IL-2 2.5 ng/mL
Description: as §1

DERL-7 (IL-2 2.5 ng/mL) [16] = test: as above; conditions: 72 h
IMC-1 (IL-2 20 ng/mL) [17] = test: as above; conditions: 72 h
KAI3 (IL-2 2.5 ng/mL) [18] = test: as above; conditions: 72 h
KHYG-1 (IL-2 2.5 ng/mL) [19] = test: as above; conditions: 72 h
NK-92 (IL-2 2.5 ng/mL) [20] = test: as above; conditions: 72 h
NK-YS (IL-2 2.5 ng/mL) [21] = test: as above; conditions: 72 h
NKL (IL-2 2.5 ng/mL) [22] = test: as above; conditions: 72 h
SNK-6 (IL-2 2.5 ng/mL) [23] = test: as above; conditions: 72 h
YT (IL-2 2.5 ng/mL) [24] = test: as above; conditions: 72 h
[25] = system: normal primary NK cells, pool 1 (3 donors) (IL-2 2.5 ng/mL); test: as above; conditions: 72 h
[26] = system: normal primary NK cells, pool 1 (3 donors), resting (IL-2 0 ng/mL); test: as above; conditions: 72 h
[27] = system: normal primary NK cells, pool 2 (3 donors) (IL-2 2.5 ng/mL); test: as above; conditions: 72 h
[28] = system: normal primary NK cells, pool 3 (3 donors) (IL-2 2.5 ng/mL); test: as above; conditions: 72 h

CS(=O)(=O)OCCCCOS(C)(=O)=O [Busulfan] (max concentration tested 100000 nM)
percent inhibition of viability [%]
Conditions | 10 nM | 100 nM | 1000 nM | 10000 nM | 100000 nM
DERL-7 (IL-2 2.5 ng/mL) [2] | -0.3 | 0.71 | -1.86 | -6.29 | 37.3
IMC-1 (IL-2 20 ng/mL) [3] | -7.58 | 1.98 | -0.95 | 5.86 | 97.7
KAI3 (IL-2 2.5 ng/mL) [4] | -3.8 | 4.61 | -6.45 | 7.92 | 92.1
KHYG-1 (IL-2 2.5 ng/mL) [5] | -5.97 | 2.86 | -2.89 | 5.78 | 101
NK-92 (IL-2 2.5 ng/mL) [6] | -12.9 | 1.55 | 8.88 | -9.97 | 98.6
NK-YS (IL-2 2.5 ng/mL) [7] | -7.3 | -2.96 | -5.68 | 2.67 | 93.2
NKL (IL-2 2.5 ng/mL) [8] | -14.8 | -1.78 | -0.6 | 5.56 | 99.4
SNK-6 (IL-2 2.5 ng/mL) [9] | 6.87 | 18.8 | 18.7 | 29.4 | 98
YT (IL-2 2.5 ng/mL) [10] | -5.22 | 1.87 | -2.46 | -4.04 | 47.7
[1] | -2.86 | 1.34 | 1.8 | 12.1 | 11.6
[11] | 0.77 | -7.48 | -4.93 | -16 | -3.43
[12] | 9.92 | -5.43 | 4.09 | -28.6 | -11.5
[13] | -6.89 | -5.87 | 7.32 | -4.08 | 50.9
[14] | 0.71 | -2.78 | 10.5 | -3.81 | 35.4

Conditions | drug sensitivity score
DERL-7 (IL-2 2.5 ng/mL) [16] | 1.44
IMC-1 (IL-2 20 ng/mL) [17] | 6.28
KAI3 (IL-2 2.5 ng/mL) [18] | 6.36
KHYG-1 (IL-2 2.5 ng/mL) [19] | 6.48
NK-92 (IL-2 2.5 ng/mL) [20] | 4.82
NK-YS (IL-2 2.5 ng/mL) [21] | 5.53
NKL (IL-2 2.5 ng/mL) [22] | 6.32
SNK-6 (IL-2 2.5 ng/mL) [23] | 8.82
YT (IL-2 2.5 ng/mL) [24] | 2.18
[15] | 0.67
[25] | 0
[26] | 0
[27] | 2.38
[28] | 1.42

Nc1nc(Cl)nc2c1ncn2[C@H]1C[C@H](O)[C@@H](CO)O1 [Cladribine] (max concentration tested 1000 nM)
percent inhibition of viability [%]
Conditions | 0.1 nM | 1 nM | 10 nM | 100 nM | 1000 nM
DERL-7 (IL-2 2.5 ng/mL) [2] | -4.72 | -1.74 | 2.44 | 83.3 | 100
IMC-1 (IL-2 20 ng/mL) [3] | -1.93 | -4.54 | -8.55 | 59.4 | 99.9
KAI3 (IL-2 2.5 ng/mL) [4] | -17.3 | -11.1 | -4.18 | 61.5 | 92.2
KHYG-1 (IL-2 2.5 ng/mL) [5] | -2.1 | -6.64 | 0.12 | 102 | 99.4
NK-92 (IL-2 2.5 ng/mL) [6] | -7.06 | -4.86 | 2.88 | 92.3 | 97.7
NK-YS (IL-2 2.5 ng/mL) [7] | -8.76 | -10.6 | -9.2 | 7.65 | 88.2
NKL (IL-2 2.5 ng/mL) [8] | -13.2 | -8.81 | -9.87 | 104 | 98.6
SNK-6 (IL-2 2.5 ng/mL) [9] | 11.6 | 5.52 | 8.41 | 66.9 | 91.5
YT (IL-2 2.5 ng/mL) [10] | -4 | -5.35 | -6.95 | 5.62 | 56.9
[1] | -1.61 | -1.55 | 30.3 | 100 | 100
[11] | -5.25 | -7.26 | 23.2 | 93.1 | 96.5
[12] | -18.2 | -14.8 | 62 | 90.2 | 90
[13] | -13.2 | -12.7 | 24.4 | 90.6 | 93.7
[14] | -12.6 | -10.5 | 18.2 | 87.7 | 97

Conditions | drug sensitivity score
DERL-7 (IL-2 2.5 ng/mL) [16] | 15.4
IMC-1 (IL-2 20 ng/mL) [17] | 12.5
KAI3 (IL-2 2.5 ng/mL) [18] | 12.2
KHYG-1 (IL-2 2.5 ng/mL) [19] | 18.2
NK-92 (IL-2 2.5 ng/mL) [20] | 17.1
NK-YS (IL-2 2.5 ng/mL) [21] | 6.1
NKL (IL-2 2.5 ng/mL) [22] | 17.6
SNK-6 (IL-2 2.5 ng/mL) [23] | 13.8
YT (IL-2 2.5 ng/mL) [24] | 3.98
[15] | 22.4
[25] | 20.3
[26] | 23.5
[27] | 20.3
[28] | 18.4

CC[C@H](Nc1ncnc2[nH]cnc12)c1nc2cccc(F)c2c(=O)n1-c1ccccc1 [Idelalisib] (max concentration tested 10000 nM)
percent inhibition of viability [%]
Conditions | 1 nM | 10 nM | 100 nM | 1000 nM | 10000 nM
DERL-7 (IL-2 2.5 ng/mL) [2] | 0.81 | 7.45 | 12.8 | 35.1 | 66.8
IMC-1 (IL-2 20 ng/mL) [3] | -6.02 | -6.45 | -0.47 | -2.08 | 11.1
KAI3 (IL-2 2.5 ng/mL) [4] | -6.15 | 4.84 | 14.3 | 12.3 | 24.5
KHYG-1 (IL-2 2.5 ng/mL) [5] | -5.24 | 5.27 | 6.69 | 5.88 | 20.5
NK-92 (IL-2 2.5 ng/mL) [6] | 7.56 | 15.2 | 42.3 | 40.1 | 54.5
NK-YS (IL-2 2.5 ng/mL) [7] | -9.88 | -3.78 | 3.49 | -1.8 | 18
NKL (IL-2 2.5 ng/mL) [8] | -12.5 | -5.82 | 11 | 18.2 | 37
SNK-6 (IL-2 2.5 ng/mL) [9] | -11.8 | -5.04 | 17.2 | 23.9 | 57.8
YT (IL-2 2.5 ng/mL) [10] | 1.69 | 6.88 | 13.7 | 12.4 | 27.4
[1] | -1.29 | -3.37 | 3.42 | 14.1 | 38.7
[11] | -2.62 | 10.2 | 9.54 | 5.66 | 28.7
[12] | 1.24 | 15.1 | 10.3 | 1.19 | 46.2
[13] | -10.8 | -5.29 | 14.8 | 13.4 | 35.6
[14] | -3.21 | -0.12 | 6.64 | 10.3 | 26.2

Conditions | drug sensitivity score
DERL-7 (IL-2 2.5 ng/mL) [16] | 8.42
IMC-1 (IL-2 20 ng/mL) [17] | 0
KAI3 (IL-2 2.5 ng/mL) [18] | 2.76
KHYG-1 (IL-2 2.5 ng/mL) [19] | 0.8
NK-92 (IL-2 2.5 ng/mL) [20] | 14.8
NK-YS (IL-2 2.5 ng/mL) [21] | 0.36
NKL (IL-2 2.5 ng/mL) [22] | 3.92
SNK-6 (IL-2 2.5 ng/mL) [23] | 6.33
YT (IL-2 2.5 ng/mL) [24] | 3
[15] | 3.47
[25] | 1.85
[26] | 2.55
[27] | 3.36
[28] | 1.78
